pIC50: −log10 of the molar value.

This assay has as its target human DGAT2 (Homo sapiens (Human), UniProt Q96PD7). As to the kind of experiment: Measurement of inhibitory effect against DGAT2 enzyme activity (SPA, Phospholipid FlashPlate, [14C]-TG production). The assay is classed as biochemical. The note with it: recombinant human DGAT2 membrane protein from Sf-21 cells; inhibition of [14C]-TG production; 37° C. The source says:
Experimental Example: Measurement of Inhibitory Effect Against DGAT2 Enzyme Activity
1. Preparation of DGAT2 Expression Vector
In order to prepare the pBacPAK9-DGAT2, which is DGAT2 expression vector, the human DGAT2 gene amplified by polymerase chain reaction (PCR) was cloned into the EcoR1 and Xho1 sites of the pBacPAK9 (clonctech) vector. The nucleotide sequence of the primers used in PCR was the forward primer 5′ […] and the reverse primer 5′ […]. The composition of the reaction solution was to contain 50 ng of cDNA clone (OriGene), 200 μM of dATP, dCTP, dTTP, dGTP, 200 nM of each primer, 1 unit of Tag DNA Polymerase (Toyobo), 1x PCR buffer, and the final volume was adjusted to 20 μl. The reaction conditions were denatured at 95° C. for 5 minutes, followed by 30 times of 94° C. for 20 seconds, 60° C. for 20 seconds, and 72° C. for 90 seconds, followed by further reaction at 72° C. for 7 minutes.
2. DGAT2 Expression and Preparation of Membrane Protein
Recombinant human DGAT2 protein was expressed in Sf-21 cells, which are insect cells, by using the BacPack baculovirus expression system (Clontech). The brief manufacturing process is as follows. First, the pBacPAK9-DGAT2 expression vector was transfected with BacPAK6 virus DNA (Bsu36I digest) into sf21 cells using Bacfectin to prepare a recombinant DGAT2 expressing baculovirus. The thus prepared baculovirus was infected with Sf-21 cells at 10 MOI (multiplicity of infection), and after 72 hours, infected insect cells were collected and membrane proteins were isolated. For membrane protein separation, the cell pellet was dissolved in a sucrose solution containing 250 mM sucrose, 10 mM Tris (pH 7.4), and 1 mM ethylenediamine-tetraacetic acid (EDTA), and then homogenized by using a dounce homogenizer, and the supernatant was taken by centrifuging at 600×g for 15 minutes, and centrifuged at 100,000×g for 1 hour to discard the supernatant, and the remaining pellet was resuspended in 20 mM HEPES buffer (pH 7.4). The prepared DGAT2 overexpressing membrane protein was dispensed in 100 μl and stored at −80° C. until use. Protein concentration was quantified by using the BCA Protein Assay Kit (Thermo Scientific).
3. Measurement of Inhibitory Effect Against DGAT2 Enzyme Activity
In vitro DGAT2 analysis was performed using a Phospholipid Flash Plate (PerkinElmer) based on the principle of SPA (Scintilation Proximity Assay). First, DGAT2 inhibition compounds serially diluted 5 times from 3 nM to 10 μM (final concentration, 1% DMSO) were mixed in a buffer solution containing 2 μg DGAT2-membrane protein and 20 mM HEPES, 20 mM MgCl2, 1 mg/mL BSA, 50 μM 1,2 sn-oleoyl glycerol (Sigma), put in a 96-well flash plate (FlashPlate) and reacted at 37° C. for 20 minutes, and then 1 μM [14C] ole oil CoA (PerkinElmer, NEC651050UC) was added to be a final volume of 100 μL and further reacted at 37° C. for 15 minutes. After the enzymatic reaction was completed, 100 μL of isopropanol was added, the plate was sealed with a film, and the plate was shaken slowly in a plate shaker. The next day, the amplified scintillation signal (cpm) in Topcounter (Packard) was measured to measure the degree of production of [14C]-labeled triacyl glycerol (TG) as a reaction product. The measured value when the compound was not treated was used as a positive control, and the measured value of the compound treated group was calculated as a relative % to measure the inhibition effect of the compound on TG production. The IC50 value, which is the concentration of the compound that inhibits TG production by 50%, was determined by treating the response value according to the compound concentration with a nonlinear regression curve using PRISM (Graphpad Inc.).

Chain of human DGAT2 (Q96PD7 whole entry): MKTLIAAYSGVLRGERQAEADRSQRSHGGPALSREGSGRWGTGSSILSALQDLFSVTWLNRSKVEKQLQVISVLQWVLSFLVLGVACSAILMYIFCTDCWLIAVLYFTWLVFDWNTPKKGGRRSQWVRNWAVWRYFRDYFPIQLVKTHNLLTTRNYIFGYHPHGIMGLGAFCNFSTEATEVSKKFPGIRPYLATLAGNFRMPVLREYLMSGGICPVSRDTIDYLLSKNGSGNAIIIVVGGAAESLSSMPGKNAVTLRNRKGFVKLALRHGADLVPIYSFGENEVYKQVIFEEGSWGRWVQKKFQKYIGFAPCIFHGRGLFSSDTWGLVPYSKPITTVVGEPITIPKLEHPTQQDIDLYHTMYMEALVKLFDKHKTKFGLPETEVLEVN

Regarding `CCOc1cccnc1Oc1cccc(-c2cncc(NC(=O)CCc3ccc(C(C)(C)C(=O)O)cc3)n2)c1` [Example 26, 2-(4-(3-((6-(3-((3-ethoxypyridin-2-yl)oxy)phenyl)pyrazin-2-yl)amino)-3-oxopropyl)phenyl)-2-methylpropanoic acid], the pIC50 is 7.68.
